Where only a bound is given, the exact number is not on record here.

In general, IC50 refers to the concentration that gives 50% inhibition. Lower therefore signals inhibition by little substance.

Experiment [1] concerns Human subcutaneous pre-adipocytes. Kind of experiment: Lipogenesis Assay (AdipoRed staining). The conditions noted are these: AdipoRed fluorescence, NI = no inhibition at concentration less than/equal to 1 mM. The format is cell-based. Here is the method:
Lipogenesis is the process by which acetyl-CoA is converted to fatty acid. Through lipogenesis and subsequent triglyceride synthesis, energy can be stored in the form of adipose tissue (i.e. fats). To determine what effect, if any, activating compounds (shown in TABLE 1) had on lipogenesis, the protocol listed below was used.
To determine whether the activating compounds (shown in TABLE 1) impacted the formation of white adipocytes from pre-adipocytes, a lipogenesis assay was performed. The cells utilized in the protocol were cryo-preserved Human subcutaneous pre-adipocytes superlot (Zen-Bio, Inc., Research Triangle Park, N.C., Cat # SP-F-SL). The growth media used was PM-1 (Zen-Bio, Inc., Research Triangle Park, N.C., cat # PM-1) plus 5 ng/mL Epidermal Growth Factor (EGF). The PM-1+5 ng/mL EGF was prepared by adding 12.5 uL of 200 ug/mL EGF stock to 500 mL PM-1. The differentiation media used was DM-2 (Zen-Bio, Inc., Research Triangle Park, N.C., cat # DM-2). The adipocyte maintenance media used was AM-1 (Zen-Bio, Inc., Research Triangle Park, N.C., cat # AM-1).
First, the human subcutaneous pre-adipocyte cells were thawed in a 37° C. water bath. Next, the thawed pre-adipocyte cells were added to 9 mL of growth medium (PM-1) at 20° C. in a 15 mL polypropylene tube (Bioexpress, Corning, Corning, N.Y.). The tube was centrifuged at 280×g (˜1100 rpm) at 20° C. for 5 min. After 5 min, the supernatant was removed and the accumulated solids were re-suspended in 2 mL of PM-1 using trituration. The suspension of cells was counted under 100× magnification using a Cyto C-Chip hemacytometer (Incyto, Seoul, South Korea, cat # DHC-N01-5). In order to proceed, 15-50 cells per 1×1 mm square in hemacytometer was needed. If, the number of cells per square was not met, 6.7×10^5 (670,000) cells per T75 flask (Bioexpress, Corning, Corning, N.Y.) were added to each square and the suspension was diluted to 20 mL with PM-1. Every other day, new media was added to replace media removed due to metabolism by the cells. The cells were re-counted as described previously. Cells were grown to 80-90% confluence, which took approximately 4-5 days. 80-90% confluence is determined by visual inspection of the area of the flask occupied by the cells. When 80-90% of the flask area has been occupied, cells are at 80-90% confluence. Cell colonies were then split 1:6 by harvesting from a single flask and equally dividing the harvested cells into six flasks. Colonies were not allowed to exceed 3 passages and were not grown to complete confluence. The pre-adipocytes were grown until they contact with other cells in the flask to aid differentiation into white or brown adipocytes.
After the pre-adipocytes were sufficiently grown to 90% confluence, the cells were ready for differentiation and treatment with an activating compound. Cells were washed with 3 mL of PBS and detached using 3 mL of Trypsin EDTA. The cells were incubated at 37° C. for 5 minutes. Next, the cells were centrifuged at 280×g at 20° C. for 5 minutes. The supernatant was discarded and the resulting pellet was re-suspended in 10 mL of PM-1 using trituration. Cells were counted at 100× magnification and the cells were diluted to 86,667 cells/mL (˜13,000 cells/150 μL) by adding the necessary amount of PM-1 to achieve the desired concentration. Upon addition of PM-1, samples were swirled by hand to evenly disperse the cells prior to plating.
Once confluence is reached, 150 μL of differentiation media (DM-2) was added (DAY 0). Samples were incubated at 37° C. for 6 days. On DAY 6, 90 μL of media was removed from each sample via aspiration, without touching the bottom of the well. Next, 140 μL of adipocyte maintenance medium (AM-1) was added. The AM-1 ran down the side of well. On DAY 6, activating compounds were added (2 μL of 10 mM activating compound) to give a final concentration of 100 μM of activating compounds. […]

The target of another experiment is human TRPM8. Put plainly: TRPM8 Protocol-FLIPR Assay (intracellular Ca2+). The note with it: HEK-293 cells stably transfected with human TRPM8, Fluo-4 AM, relative to benchmark agonist WS-5. It counts as cell-based. Here is the method: To determine whether TRPM8 is activated, the intracellular calcium ion (Ca^2+) level was measured from transfected cells with the TRPM8 receptor sequence (SEQ ID NO: 1). HEK-293 (human embryonic kidney) cells stably transfected with human TRPM8 were grown in 15 mL growth medium (high glucose DMEM (Dulbecco's Modification of Eagle's Medium) supplemented with 10% FBS (fetal bovine serum), 100 μg/mL penicillin/streptomycin, 5 μg/mL blasticindin, and 100 μg/mL zeocin) in a 75 cm^2 flask for 3 days at 37° C. in a mammalian cell culture incubator (Forma Scientific Model 3110, Marietta, Ohio) set at 5% CO2. Cells were detached with addition of 2 mL of trypsin-EDTA buffer (GIBCO® 25200, Invitrogen, Grand Island, N.Y.) for about 2-3 min. Trypsin was inactivated by addition of 8 mL growth medium. Cells were transferred to a 50 mL tube and centrifuged at 850 rpm for 3 minutes to remove medium. After centrifugation, a pellet of cells was formed in the bottom of the tube separating them from the supernatant solution. The supernatant was discarded and the cell pellet was suspended in 1 mL of fresh growth medium to which 5 μL (12.5 μg) of Fluo-4 AM (Molecular Probes, Inc., Eugene, Oreg.) calcium indicator was added and incubated for 30 min with gentle shaking. Fluo-4 AM is a fluorescent dye used for quantifying cellular Ca^2+ concentrations in the 100 nM to 1 μM range. At the end of 30 minutes, 45 mL of assay buffer (1×HBSS (Hank's Balanced Salt Solution), 20 mM HEPES (4-(2-Hydroxyethyl)-1-piperazineethanesulfonic acid)) was added to wash cells and the resulting mixture was then centrifuged at 850 rpm for 3 minutes at 20° C. to remove excess buffer and Fluo-4 AM calcium indicator.
The pelleted cells were re-suspended in 10 mL assay buffer and 90 μL aliquots (˜50,000 cells) per well delivered to a 96-well assay plate containing 10 μL of test compounds (1 mM in assay buffer, final concentration 100 μM) or buffer control and incubated at room temperature for 30 minutes. After 30 minutes, a plate (Falcon 353219, Corning Corning N.Y.) was placed into a fluorometric imaging plate reader (FLIPR384 from Molecular Devices, Sunnyvale, Calif.) and basal fluorescence recorded (excitation wave length 488 nm and emission wave length 510 nm). Then 20 μL of 100 mM of TRPM8 agonist WS5 coolant in the assay buffer was added and fluorescence recorded. For determining the direct effect of test compounds on TRPM8, fluorescence was measured immediately after addition of each compound (TABLE 1). Additional discussion of the FLIPR method can be found in Smart et al., Characterization using FLIPR of human vanilloid VR1 receptor pharmacology, European Journal of Pharmacology 417, 51-58 (2001) and Liu et al., Development and validation of a platelet calcium flux assay using a fluorescent imaging plate reader, Analytical Biochemistry 357, 216-224 (2006).
The magnitude of the fluorescence of the active-treated cells was compared to the magnitude of the fluorescence from a benchmark agonist (WS-5), as described above. The percentage of fluorescence as a function of active dose was plotted and a sigmoidal curve was generated. Curve fitting from this dose-response curve yielded the value for TRPM8 IC50 in nM.
TRPM8 activation was determined by measuring intracellular calcium ion (Ca^2+) level from transfected cells with the TRPM8 receptor gene, as described in EXAMPLE 1, the results of which are shown in TABLE 1. IC50 values are provided in column 3 of TABLE 1, which measured the concentration of activating compound needed to reduce intracellular [Ca^2+] by 50%. […]

For the next experiment, the system named is adipocytes. Kind of experiment: Real Time PCR analysis of adipocytes, in vitro. The format is cell-based, human. Here is the method:
For Real Time PCR analysis of adipocytes, cells from cultures grown in 24 well plates were collected. RNA was isolated using RNeasy Kit (Cat 74104, Qiagen, Germantown, Md.) using manufacturer's protocol. RNA was quantitated using the Nanodrop 1000 (Thermofisher, Waltham, Mass.). cDNA formation was carried out using PowerUp SYBR™ Green Master Mix and real time PCR carried out on QuantStudio 6 machine (ThermoFisher, Waltham, Mass.) per manufacturer protocol. ΔΔCT analysis was done using the Expression Suite software (ThermoFisher) purchased with the instrument.
TABLE 2 used Real Time PCR to determine which proteins were expressed in adipocytes upon treatment with activating compounds. […] Real Time PCR values were relative to a control sample that was not treated with any activating compounds. […] In WS-5 and Menthol, no Real Time PCR value was over 2.0, which indicated only slight changes in mRNA expression.

[2] abbreviates: Real Time PCR, relative to untreated control = 1.

In experiment [1] (Homo sapiens), `CC(C)[C@@H]1CC[C@@H](C)C[C@H]1C(=O)NCC(NC(=O)[C@@H](C)N)c1ccccc1` (stereo partly drawn) [Comparative Example 1] returned an IC50 of 800 µM.

Consider `CC(C)[C@@H]1CC[C@@H](C)C[C@H]1C(=O)NCC(NC(=O)[C@H](C)N)c1ccccc1` (stereo partly drawn) [Comparative Example 2], for which the IC50 was 900 µM in experiment [1], 800 µM in experiment [1] (Homo sapiens) and 10 to 12 nM at human TRPM8.

`CC(C)[C@@H]1CC[C@@H](C)C[C@H]1C(=O)NC[C@@H](NC(=O)[C@@H](C)N)c1ccccc1` [Formula IV] showed an IC50 in experiment [1] (Homo sapiens) of 800 µM. Besides, in the experiment with adipocytes (setting [2]), the “Relative Expression of mRNA in Adipocytes: 18S” value is recorded as 0.95, the “Relative Expression of mRNA in Adipocytes: ACADM” value is 1.4, the “Relative Expression of mRNA in Adipocytes: CPT1A” value was 1.7 and the “Relative Expression of mRNA in Adipocytes: FASN” value turned out to be 1.35. Besides, in the experiment on adipocytes (setting [2]), the “Relative Expression of mRNA in Adipocytes: GAPDH” value was determined as 1, the “Relative Expression of mRNA in Adipocytes: PPARGC1A” value was 1.1, the “Relative Expression of mRNA in Adipocytes: PRDM16” value amounted to 0.7 and the “Relative Expression of mRNA in Adipocytes: UCP-1” value is reported as 1.8. Also, the “Real Time PCR value (any of the proteins of TABLE 2)” value in the experiment with adipocytes (upper bound over all proteins, relative to untreated control) was not above 2.

For the compound `CC(C)[C@@H]1CC[C@@H](C)C[C@H]1C(=O)OC[C@@H](NC(=O)[C@@H](C)N)c1ccccc1` [Formula VI], the IC50 in experiment [1] (Homo sapiens) came to 40 µM; at human TRPM8, 8 nM.

`CC(C)[C@@H]1CC[C@@H](C)C[C@H]1C(=O)OC[C@@H](NC(=O)[C@H](C)N)c1ccccc1` [Formula V]: the values for the IC50 (in experiment [1] (Homo sapiens); on human TRPM8) were 80 µM and 340 nM, respectively.
